Test results published in article PMC4917279 (Journal of Medicinal Chemistry, 2016).
Entries after “also recorded” stand apart in the source; their conditions may differ.

How the values were obtained:
LTK = biological target: T1, LTK (Homo sapiens, UniProt P29376); assay: KINOMEscan; type: binding; details: read-out: %Ctrl @ 1000 nM
T1 construct: purchased DiscoveRx KINOMEscan

PAK6 = biological target: T2, PAK6 (Homo sapiens, UniProt Q9NQU5); assay: KINOMEscan; type: binding; details: read-out: %Ctrl @ 1000 nM
T2 construct: purchased DiscoveRx KINOMEscan
T2 sequence (Q9NQU5 whole entry): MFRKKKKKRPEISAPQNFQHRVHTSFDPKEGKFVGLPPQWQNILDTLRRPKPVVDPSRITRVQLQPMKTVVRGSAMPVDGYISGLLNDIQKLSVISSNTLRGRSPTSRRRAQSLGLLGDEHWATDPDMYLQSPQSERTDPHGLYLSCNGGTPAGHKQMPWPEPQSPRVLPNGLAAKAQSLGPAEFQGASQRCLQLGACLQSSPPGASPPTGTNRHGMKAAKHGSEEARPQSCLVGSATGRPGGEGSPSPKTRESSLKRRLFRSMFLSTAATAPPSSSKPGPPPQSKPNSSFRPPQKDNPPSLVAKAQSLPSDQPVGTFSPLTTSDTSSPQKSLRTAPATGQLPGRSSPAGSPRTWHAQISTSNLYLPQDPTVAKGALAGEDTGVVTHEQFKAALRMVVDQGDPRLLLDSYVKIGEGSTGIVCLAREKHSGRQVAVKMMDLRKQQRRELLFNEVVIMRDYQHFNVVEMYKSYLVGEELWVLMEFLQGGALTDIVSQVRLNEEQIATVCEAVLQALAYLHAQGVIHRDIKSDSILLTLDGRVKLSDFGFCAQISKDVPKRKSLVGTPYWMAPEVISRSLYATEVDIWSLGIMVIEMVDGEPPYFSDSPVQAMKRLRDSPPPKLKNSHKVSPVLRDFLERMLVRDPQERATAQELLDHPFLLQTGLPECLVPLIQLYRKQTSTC

PHKG2 = biological target: T3, PHKG2 (Homo sapiens, UniProt P15735); assay: KINOMEscan; type: binding; details: read-out: %Ctrl @ 1000 nM
T3 construct: purchased DiscoveRx KINOMEscan
T3 sequence (P15735 whole entry): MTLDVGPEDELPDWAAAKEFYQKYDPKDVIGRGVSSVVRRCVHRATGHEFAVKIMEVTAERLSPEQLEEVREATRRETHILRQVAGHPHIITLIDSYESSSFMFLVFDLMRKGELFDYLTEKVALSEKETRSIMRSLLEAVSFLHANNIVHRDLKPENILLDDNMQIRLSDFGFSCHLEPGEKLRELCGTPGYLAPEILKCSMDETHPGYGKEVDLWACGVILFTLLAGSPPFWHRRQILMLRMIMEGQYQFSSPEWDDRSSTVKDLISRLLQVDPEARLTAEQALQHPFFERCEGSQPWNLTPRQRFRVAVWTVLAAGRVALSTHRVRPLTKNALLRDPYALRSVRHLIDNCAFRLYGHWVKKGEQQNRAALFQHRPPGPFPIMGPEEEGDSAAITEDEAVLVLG

TIE2 = biological target: T4, TIE2 (Homo sapiens, UniProt Q02763); assay: KINOMEscan; type: binding; details: read-out: %Ctrl @ 1000 nM
T4 construct: purchased DiscoveRx KINOMEscan

CDK8 = biological target: T5, CDK8 (Homo sapiens, UniProt P49336); assay: KINOMEscan; type: binding; details: read-out: %Ctrl @ 1000 nM
T5 construct: purchased DiscoveRx KINOMEscan
T5 sequence (P49336 whole entry): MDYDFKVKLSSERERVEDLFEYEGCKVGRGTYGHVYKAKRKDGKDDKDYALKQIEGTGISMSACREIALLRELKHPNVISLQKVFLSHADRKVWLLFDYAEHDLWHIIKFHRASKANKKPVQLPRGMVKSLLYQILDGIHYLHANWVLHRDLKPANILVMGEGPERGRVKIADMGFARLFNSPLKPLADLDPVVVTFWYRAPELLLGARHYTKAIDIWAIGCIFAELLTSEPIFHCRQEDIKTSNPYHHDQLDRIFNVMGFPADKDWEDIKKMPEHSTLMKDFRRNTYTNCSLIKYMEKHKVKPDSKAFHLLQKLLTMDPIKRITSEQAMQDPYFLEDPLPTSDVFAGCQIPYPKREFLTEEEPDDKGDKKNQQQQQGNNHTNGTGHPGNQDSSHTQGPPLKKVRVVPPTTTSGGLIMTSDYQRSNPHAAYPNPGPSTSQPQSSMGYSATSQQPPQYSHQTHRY

TNK2 = biological target: T6, TNK2 (Homo sapiens, UniProt Q07912); assay: KINOMEscan; type: binding; details: read-out: %Ctrl @ 1000 nM
T6 construct: purchased DiscoveRx KINOMEscan

[1] = biological target: T7, RPS6KA5(Kin.Dom.1-N-terminal) (Homo sapiens, UniProt O75582); assay: KINOMEscan; type: binding; details: read-out: %Ctrl @ 1000 nM
T7 construct: RPS6KA5(Kin.Dom.1-N-terminal); purchased DiscoveRx KINOMEscan

TRKA = biological target: T8, TRKA (Homo sapiens, UniProt P04629); assay: KINOMEscan; type: binding; details: read-out: %Ctrl @ 1000 nM
T8 construct: purchased DiscoveRx KINOMEscan

CSNK1G2 = biological target: T9, CSNK1G2 (Homo sapiens, UniProt P78368); assay: KINOMEscan; type: binding; details: read-out: %Ctrl @ 1000 nM
T9 construct: purchased DiscoveRx KINOMEscan

ASK1 = biological target: T10, ASK1 (Homo sapiens, UniProt Q99683); assay: KINOMEscan; type: binding; details: read-out: %Ctrl @ 1000 nM
T10 construct: purchased DiscoveRx KINOMEscan

TEC = biological target: T11, TEC (Homo sapiens, UniProt P42680); assay: KINOMEscan; type: binding; details: read-out: %Ctrl @ 1000 nM
T11 construct: purchased DiscoveRx KINOMEscan

MELK = biological target: T12, MELK (Homo sapiens, UniProt Q14680); assay: KINOMEscan; type: binding; details: read-out: %Ctrl @ 1000 nM
T12 construct: purchased DiscoveRx KINOMEscan

CAMK4 = biological target: T13, CAMK4 (Homo sapiens, UniProt Q16566); assay: KINOMEscan; type: binding; details: read-out: %Ctrl @ 1000 nM
T13 construct: purchased DiscoveRx KINOMEscan

TRKC = biological target: T14, TRKC (Homo sapiens, UniProt Q16288); assay: KINOMEscan; type: binding; details: read-out: %Ctrl @ 1000 nM
T14 construct: purchased DiscoveRx KINOMEscan

[2] = tested on: KYSE-150, U2OS, and A2780 cell lines; assay: Caspase 3/7 activation assay; type: cell-based
Experimental: Effects on apoptosis induction were measured with the Caspase-Glo 3/7 Assay System (Promega).

CDK2 = biological target: T15, CDK2 (Homo sapiens, UniProt P24941); assay: KINOMEscan; type: binding; details: read-out: %Ctrl @ 1000 nM
T15 construct: purchased DiscoveRx KINOMEscan

MINK = biological target: T16, MINK (Homo sapiens, UniProt Q8N4C8); assay: KINOMEscan; type: binding; details: read-out: %Ctrl @ 1000 nM
T16 construct: purchased DiscoveRx KINOMEscan

MLK1 = biological target: T17, MLK1 (Homo sapiens, UniProt P80192); assay: KINOMEscan; type: binding; details: read-out: %Ctrl @ 1000 nM
T17 construct: purchased DiscoveRx KINOMEscan
T17 sequence (P80192 whole entry): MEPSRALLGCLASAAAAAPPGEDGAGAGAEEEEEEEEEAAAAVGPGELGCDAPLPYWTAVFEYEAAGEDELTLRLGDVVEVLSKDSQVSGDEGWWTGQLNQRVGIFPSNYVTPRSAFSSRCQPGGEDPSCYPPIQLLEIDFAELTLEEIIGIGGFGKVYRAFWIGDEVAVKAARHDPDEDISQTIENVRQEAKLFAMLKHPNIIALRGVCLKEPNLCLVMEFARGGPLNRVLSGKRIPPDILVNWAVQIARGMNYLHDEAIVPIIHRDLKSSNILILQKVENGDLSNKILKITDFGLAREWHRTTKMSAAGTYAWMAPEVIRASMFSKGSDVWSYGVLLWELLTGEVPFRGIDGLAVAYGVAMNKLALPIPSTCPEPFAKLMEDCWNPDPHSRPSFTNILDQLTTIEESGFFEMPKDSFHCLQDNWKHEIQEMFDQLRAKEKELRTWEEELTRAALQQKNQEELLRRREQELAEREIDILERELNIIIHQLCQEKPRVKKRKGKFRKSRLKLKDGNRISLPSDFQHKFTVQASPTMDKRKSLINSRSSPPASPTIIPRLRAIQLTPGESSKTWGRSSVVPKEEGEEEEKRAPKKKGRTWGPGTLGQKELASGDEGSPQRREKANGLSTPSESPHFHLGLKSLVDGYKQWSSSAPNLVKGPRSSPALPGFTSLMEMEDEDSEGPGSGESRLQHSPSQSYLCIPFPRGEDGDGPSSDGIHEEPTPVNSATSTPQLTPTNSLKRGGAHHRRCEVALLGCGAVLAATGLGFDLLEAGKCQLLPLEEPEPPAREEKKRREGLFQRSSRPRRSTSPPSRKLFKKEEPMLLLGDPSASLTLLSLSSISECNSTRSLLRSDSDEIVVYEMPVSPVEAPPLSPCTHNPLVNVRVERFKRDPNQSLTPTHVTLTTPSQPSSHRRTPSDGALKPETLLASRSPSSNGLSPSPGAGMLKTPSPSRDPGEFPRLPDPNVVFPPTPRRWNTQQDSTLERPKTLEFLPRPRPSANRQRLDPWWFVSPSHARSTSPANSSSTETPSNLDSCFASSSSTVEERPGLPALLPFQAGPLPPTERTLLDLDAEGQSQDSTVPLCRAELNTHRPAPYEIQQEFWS

GCN2(Kin.Dom.2,S808G) = biological target: T18, GCN2(Kin.Dom.2,S808G) (Homo sapiens, UniProt Q9P2K8, S808G); assay: KINOMEscan; type: binding; details: read-out: %Ctrl @ 1000 nM
T18 construct: GCN2(Kin.Dom.2,S808G); purchased DiscoveRx KINOMEscan

ROCK2 = biological target: T19, ROCK2 (Homo sapiens, UniProt O75116); assay: KINOMEscan; type: binding; details: read-out: %Ctrl @ 1000 nM
T19 construct: purchased DiscoveRx KINOMEscan

p38-gamma = biological target: T20, p38-gamma (Homo sapiens, UniProt P53778); assay: KINOMEscan; type: binding; details: read-out: %Ctrl @ 1000 nM
T20 construct: purchased DiscoveRx KINOMEscan

MAP4K2 = biological target: T21, MAP4K2 (Homo sapiens, UniProt Q12851); assay: KINOMEscan; type: binding; details: read-out: %Ctrl @ 1000 nM
T21 construct: purchased DiscoveRx KINOMEscan

MST1 = biological target: T22, MST1 (Homo sapiens, UniProt Q13043); assay: KINOMEscan; type: binding; details: read-out: %Ctrl @ 1000 nM
T22 construct: purchased DiscoveRx KINOMEscan

LIMK2 = biological target: T23, LIMK2 (Homo sapiens, UniProt P53671); assay: KINOMEscan; type: binding; details: read-out: %Ctrl @ 1000 nM
T23 construct: purchased DiscoveRx KINOMEscan

PRKD2 = biological target: T24, PRKD2 (Homo sapiens, UniProt Q9BZL6); assay: KINOMEscan; type: binding; details: read-out: %Ctrl @ 1000 nM
T24 construct: purchased DiscoveRx KINOMEscan

MEK4 = biological target: T25, MEK4 (Homo sapiens, UniProt P45985); assay: KINOMEscan; type: binding; details: read-out: %Ctrl @ 1000 nM
T25 construct: purchased DiscoveRx KINOMEscan
T25 sequence (P45985 whole entry): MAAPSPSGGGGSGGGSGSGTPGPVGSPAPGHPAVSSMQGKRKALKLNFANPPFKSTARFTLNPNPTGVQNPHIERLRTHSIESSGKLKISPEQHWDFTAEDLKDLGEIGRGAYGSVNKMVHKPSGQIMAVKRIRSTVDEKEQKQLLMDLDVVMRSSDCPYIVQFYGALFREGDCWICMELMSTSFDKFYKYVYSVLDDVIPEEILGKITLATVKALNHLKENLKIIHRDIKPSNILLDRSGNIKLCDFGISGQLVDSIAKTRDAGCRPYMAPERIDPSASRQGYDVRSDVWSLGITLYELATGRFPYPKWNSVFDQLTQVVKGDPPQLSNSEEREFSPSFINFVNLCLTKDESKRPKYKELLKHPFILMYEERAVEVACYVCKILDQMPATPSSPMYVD

RIPK2 = biological target: T26, RIPK2 (Homo sapiens, UniProt O43353); assay: KINOMEscan; type: binding; details: read-out: %Ctrl @ 1000 nM
T26 construct: purchased DiscoveRx KINOMEscan

PLK3 = biological target: T27, PLK3 (Homo sapiens, UniProt Q9H4B4); assay: KINOMEscan; type: binding; details: read-out: %Ctrl @ 1000 nM
T27 construct: purchased DiscoveRx KINOMEscan
T27 sequence (Q9H4B4 whole entry): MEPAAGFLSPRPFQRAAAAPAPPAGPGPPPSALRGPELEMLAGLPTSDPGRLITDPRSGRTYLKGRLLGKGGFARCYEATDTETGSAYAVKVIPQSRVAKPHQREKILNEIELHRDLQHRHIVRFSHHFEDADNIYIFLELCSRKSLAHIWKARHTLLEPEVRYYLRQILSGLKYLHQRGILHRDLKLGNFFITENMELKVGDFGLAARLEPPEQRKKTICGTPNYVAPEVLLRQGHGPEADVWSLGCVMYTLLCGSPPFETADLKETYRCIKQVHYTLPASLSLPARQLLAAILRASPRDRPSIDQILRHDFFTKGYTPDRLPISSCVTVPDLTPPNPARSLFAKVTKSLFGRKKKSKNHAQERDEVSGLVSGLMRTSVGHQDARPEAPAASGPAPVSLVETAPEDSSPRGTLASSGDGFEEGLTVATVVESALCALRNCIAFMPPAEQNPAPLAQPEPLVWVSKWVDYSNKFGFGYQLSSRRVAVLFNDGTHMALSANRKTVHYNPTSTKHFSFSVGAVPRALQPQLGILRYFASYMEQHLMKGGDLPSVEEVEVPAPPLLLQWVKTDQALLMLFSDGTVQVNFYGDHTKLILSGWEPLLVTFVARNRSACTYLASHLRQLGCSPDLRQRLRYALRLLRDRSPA

HUNK = biological target: T28, HUNK (Homo sapiens, UniProt P57058); assay: KINOMEscan; type: binding; details: read-out: %Ctrl @ 1000 nM
T28 construct: purchased DiscoveRx KINOMEscan

RIOK1 = biological target: T29, RIOK1 (Homo sapiens, UniProt Q9BRS2); assay: KINOMEscan; type: binding; details: read-out: %Ctrl @ 1000 nM
T29 construct: purchased DiscoveRx KINOMEscan

MET(M1250T) = biological target: T30, MET(M1250T) (Homo sapiens, UniProt P08581, M1250T); assay: KINOMEscan; type: binding; details: read-out: %Ctrl @ 1000 nM
T30 construct: purchased DiscoveRx KINOMEscan

FLT3-autoinhibited = biological target: T31, FLT3-autoinhibited (Homo sapiens, UniProt P36888); assay: KINOMEscan; type: binding; details: read-out: %Ctrl @ 1000 nM
T31 construct: purchased DiscoveRx KINOMEscan
T31 sequence (P36888 564-993 limits assumed): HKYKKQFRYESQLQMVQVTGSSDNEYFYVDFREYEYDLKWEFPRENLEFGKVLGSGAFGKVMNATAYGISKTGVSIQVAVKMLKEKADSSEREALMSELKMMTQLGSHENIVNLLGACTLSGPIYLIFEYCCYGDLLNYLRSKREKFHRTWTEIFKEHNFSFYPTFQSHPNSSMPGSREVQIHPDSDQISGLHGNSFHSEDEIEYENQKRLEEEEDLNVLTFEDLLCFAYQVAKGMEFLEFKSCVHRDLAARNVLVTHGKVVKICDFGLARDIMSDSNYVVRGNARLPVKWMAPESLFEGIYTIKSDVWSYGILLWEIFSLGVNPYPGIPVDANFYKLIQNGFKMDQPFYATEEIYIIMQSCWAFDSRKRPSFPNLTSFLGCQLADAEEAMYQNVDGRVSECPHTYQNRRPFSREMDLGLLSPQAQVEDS

FGFR3 = biological target: T32, FGFR3 (Homo sapiens, UniProt P22607); assay: KINOMEscan; type: binding; details: read-out: %Ctrl @ 1000 nM
T32 construct: purchased DiscoveRx KINOMEscan

BLK = biological target: T33, BLK (Homo sapiens, UniProt P51451); assay: KINOMEscan; type: binding; details: read-out: %Ctrl @ 1000 nM
T33 construct: purchased DiscoveRx KINOMEscan

EGFR(G719C) = biological target: T34, EGFR(G719C) (Homo sapiens, UniProt P00533, G719C); assay: KINOMEscan; type: binding; details: read-out: %Ctrl @ 1000 nM
T34 construct: purchased DiscoveRx KINOMEscan

p38-delta = biological target: T35, p38-delta (Homo sapiens, UniProt O15264); assay: KINOMEscan; type: binding; details: read-out: %Ctrl @ 1000 nM
T35 construct: purchased DiscoveRx KINOMEscan

DMPK2 = biological target: T36, DMPK2 (Homo sapiens, UniProt Q6DT37); assay: KINOMEscan; type: binding; details: read-out: %Ctrl @ 1000 nM
T36 construct: purchased DiscoveRx KINOMEscan

PRKR = biological target: T37, PRKR (Homo sapiens, UniProt P19525); assay: KINOMEscan; type: binding; details: read-out: %Ctrl @ 1000 nM
T37 construct: purchased DiscoveRx KINOMEscan

ABL2 = biological target: T38, ABL2 (Homo sapiens, UniProt P42684); assay: KINOMEscan; type: binding; details: read-out: %Ctrl @ 1000 nM
T38 construct: purchased DiscoveRx

[3] = biological target: T39, EGFR(L747-E749del, A750P) (Homo sapiens, UniProt P00533, A750P/DEL747-749); assay: KINOMEscan; type: binding; details: read-out: %Ctrl @ 1000 nM
T39 construct: purchased DiscoveRx KINOMEscan

CLK1 = biological target: T40, CLK1 (Homo sapiens, UniProt P49759); assay: KINOMEscan; type: binding; details: read-out: %Ctrl @ 1000 nM
T40 construct: purchased DiscoveRx KINOMEscan

CAMK2G = biological target: T41, CAMK2G (Homo sapiens, UniProt Q13555); assay: KINOMEscan; type: binding; details: read-out: %Ctrl @ 1000 nM
T41 construct: purchased DiscoveRx KINOMEscan

T1 sequence (P29376 17-864): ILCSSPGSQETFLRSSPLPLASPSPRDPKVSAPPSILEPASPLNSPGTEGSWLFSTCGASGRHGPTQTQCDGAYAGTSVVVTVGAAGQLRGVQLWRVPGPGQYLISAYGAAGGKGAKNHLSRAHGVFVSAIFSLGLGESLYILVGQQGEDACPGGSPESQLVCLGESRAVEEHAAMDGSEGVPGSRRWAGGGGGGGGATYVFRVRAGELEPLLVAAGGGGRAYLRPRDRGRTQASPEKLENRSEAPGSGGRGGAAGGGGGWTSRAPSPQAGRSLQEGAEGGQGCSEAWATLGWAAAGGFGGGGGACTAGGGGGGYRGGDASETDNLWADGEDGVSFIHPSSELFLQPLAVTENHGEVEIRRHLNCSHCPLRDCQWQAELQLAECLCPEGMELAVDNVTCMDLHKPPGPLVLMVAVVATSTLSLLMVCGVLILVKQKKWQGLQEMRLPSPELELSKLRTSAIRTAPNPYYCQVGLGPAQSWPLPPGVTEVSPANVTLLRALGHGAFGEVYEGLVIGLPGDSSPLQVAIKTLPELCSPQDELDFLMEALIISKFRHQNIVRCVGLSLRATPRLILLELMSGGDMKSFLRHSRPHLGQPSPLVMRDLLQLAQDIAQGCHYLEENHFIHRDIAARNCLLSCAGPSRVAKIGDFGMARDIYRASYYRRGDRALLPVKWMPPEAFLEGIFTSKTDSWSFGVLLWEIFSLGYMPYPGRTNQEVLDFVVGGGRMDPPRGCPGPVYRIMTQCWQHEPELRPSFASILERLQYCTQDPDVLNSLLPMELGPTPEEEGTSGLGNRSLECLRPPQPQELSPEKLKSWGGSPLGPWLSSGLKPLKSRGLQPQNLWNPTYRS

CCN(C(=O)CO)[C@H]1CN(/C(=N\C#N)Nc2cccc(OC(F)F)c2)N=C1c1ccc(Cl)c(Cl)c1 [(S)-4]
remaining binding at 1 µM (LTK): 65%
remaining binding at 1 µM (PAK6): 100%
remaining binding at 1 µM (PHKG2): 99%
remaining binding at 1 µM (TIE2): 100%
remaining binding at 1 µM (CDK8): 92%
remaining binding at 1 µM (TNK2): 96%
remaining binding at 1 µM [1]: 93%
remaining binding at 1 µM (TRKA): 93%
remaining binding at 1 µM (CSNK1G2): 94%
remaining binding at 1 µM (ASK1): 88%
remaining binding at 1 µM (TEC): 99%
remaining binding at 1 µM (MELK): 99%
remaining binding at 1 µM (CAMK4): 82%
remaining binding at 1 µM (TRKC): 55%
Caspase 3/7 activation in combination with doxorubicin ([2]; 2 days pretreatment, then doxorubicin 24 h, KYSE-150, U2OS, A2780): significantly improved; also recorded: significantly improving
Apoptosis induction alone ([2]; without doxorubicin): without inducing apoptosis alone
remaining binding at 1 µM (CDK2): 100%
remaining binding at 1 µM (MINK): 100%
remaining binding at 1 µM (MLK1): 100%
remaining binding at 1 µM (GCN2(Kin.Dom.2,S808G)): 100%
remaining binding at 1 µM (ROCK2): 95%
remaining binding at 1 µM (p38-gamma): 70%
remaining binding at 1 µM (MAP4K2): 96%
remaining binding at 1 µM (MST1): 68%
remaining binding at 1 µM (LIMK2): 62%
remaining binding at 1 µM (PRKD2): 100%
remaining binding at 1 µM (MEK4): 100%
remaining binding at 1 µM (RIPK2): 75%
remaining binding at 1 µM (PLK3): 89%
remaining binding at 1 µM (HUNK): 94%
remaining binding at 1 µM (RIOK1): 77%
remaining binding at 1 µM (MET(M1250T)): 86%
remaining binding at 1 µM (FLT3-autoinhibited): 100%
remaining binding at 1 µM (FGFR3): 88%
remaining binding at 1 µM (BLK): 88%
remaining binding at 1 µM (EGFR(G719C)): 86%
remaining binding at 1 µM (p38-delta): 72%
remaining binding at 1 µM (DMPK2): 66%
remaining binding at 1 µM (PRKR): 84%
remaining binding at 1 µM (ABL2): 88%
remaining binding at 1 µM [3]: 87%
remaining binding at 1 µM (CLK1): 78%
remaining binding at 1 µM (CAMK2G): 89%
